Measurements: patent US20140038953A1, “COMPOSITIONS AND METHODS FOR CARDIOVASCULAR DISEASE” (THE GENERAL HOSPITAL CORPORATION, priority 2011, published 2014)
“Also recorded” adds a separate entry of the source. Marks after values point to notes of the source that are not given here.

Assays:
[1] = system: constitutively-active mutant form of ALK2; assay: Mouse model of FOP (constitutively-active mutant ALK2); assay type: in vivo; conditions: 3 mg/kg ip twice daily
Description: A mouse model of FOP has been developed in which expression of a constitutively-active mutant form of ALK2 is induced by injecting the popliteal fossa of a genetically-modified mouse with an adenovirus directing expression of Cre recombinase. This model reproduces the ectopic calcification and disability seen in FOP patients.

[2] = system: human aortic endothelial cells; assay: Reactive oxygen species in human aortic endothelial cells; assay type: cell-based; conditions: HAECs, compound 13 100 nM, ALK3-Fc 500 ng/mL
Procedure: Cells plated in a 96-well format were pre-treated with compound 13, ALK3-Fc, or vehicle for 30 min followed by treatment with oxidized LDL, BMP2, or vehicle for 20 hours after starvation for six hours. H2O2 production with chloromethyl 2′,7′-dichlorodihydrofluorescein diacetate (DCF, 2 μM) and NADPH oxidase activity with lucigenin were measured as previously described. (Ichinose, F., et al. Cardiomyocyte-specific overexpression of nitric oxide synthase 3 prevents myocardial dysfunction in murine models of septic shock. Circ Res 100, 130-139 (2007); Sorescu, G. P., et al. Bone morphogenic protein 4 produced in endothelial cells by oscillatory shear stress induces monocyte adhesion by stimulating reactive oxygen species production from a nox1-based NADPH oxidase. Circ Res 95, 773-779 (2004); and Abid, M. R., Spokes, K. C., Shih, S. C. & Aird, W. C. NADPH oxidase activity selectively modulates vascular endothelial growth factor signaling pathways. J Biol Chem 282, 35373-35385 (2007).)
Hepatoma G2 (HepG2) cells and human aortic endothelial cells (HAECs) were purchased from the American type culture collection (Manassas, Va.). HepG2 cells were maintained in Eagle's Minimum Essential Medium (EMEM) supplemented with 10% fetal bovine serum, 100 units/ml of penicillin, 0.1 mg/ml of streptomycin and glutamine. HAECs were cultured in endothelial cell basal medium (EBM 2) supplemented with the EBM2 bullet kit (Lonza, Basel, Switzerland). For experiments, cells were seeded into 6 or 12-well plates (BD Falcon, Franklin Lakes, N.J.) at a concentration of 0.5×10^6 cells per 5 mL of media. HAECs were maintained in EBM 2 with 0.1% FBS without additional growth factors for all experiments. HepG2 cells were grown to 70% confluence before they were incubated in EMEM enriched with 0.1% FBS. ApoB-100 measurements were performed in supernatants from HepG2 that had been incubated in EMEM containing 0.5% bovine serum albumin using a commercially available Human ApoB-100 ELISA kit (Mabtech AB, Nacka Strand, Sweden). […]

HepG2 cells = assay: ApoB-100 secretion in HepG2 cells (ELISA); assay type: cell-based, human; conditions: compound 13 100 nM, atorvastatin 1 nM, ALK3-Fc 400 ng/mL
Procedure: Hepatoma G2 (HepG2) cells and human aortic endothelial cells (HAECs) were purchased from the American type culture collection (Manassas, Va.). HepG2 cells were maintained in Eagle's Minimum Essential Medium (EMEM) supplemented with 10% fetal bovine serum, 100 units/ml of penicillin, 0.1 mg/ml of streptomycin and glutamine. HAECs were cultured in endothelial cell basal medium (EBM 2) supplemented with the EBM2 bullet kit (Lonza, Basel, Switzerland). For experiments, cells were seeded into 6 or 12-well plates (BD Falcon, Franklin Lakes, N.J.) at a concentration of 0.5×10^6 cells per 5 mL of media. HAECs were maintained in EBM 2 with 0.1% FBS without additional growth factors for all experiments. HepG2 cells were grown to 70% confluence before they were incubated in EMEM enriched with 0.1% FBS. ApoB-100 measurements were performed in supernatants from HepG2 that had been incubated in EMEM containing 0.5% bovine serum albumin using a commercially available Human ApoB-100 ELISA kit (Mabtech AB, Nacka Strand, Sweden). BMP2 protein measurements were performed in supernatants from HAECs that had been incubated in EBM2 containing 0.1% FBS using a BMP2 ELISA kit (R&D Systems).

LDLR−/− mice = assay: Blood biochemical analysis in LDLR−/− mice on high fat diet; assay type: in vivo
Procedure: Female mice deficient for the low density lipoprotein receptor (LDLR^−/−) on a C57BL/6 background with appropriate control mice mice (eight weeks of age) were obtained from Jackson Laboratories (Bar Harbor, Me.). Animals were fed a western style diet formulated to match Paigen's Atherogenic Rodent Diet (42% fat, 0.15% cholesterol, 19.5% casein; Research Diets Inc., New Brunswick, N.J.).
[…], white blood count, hematocrit, hemoglobin, and platelets were analyzed using a HemaTrue™ Hematology Analyzer (Heska AG, Switzerland). Urea nitrogen, glucose, alkaline phosphatase, total protein, alanine transaminase and creatinine were determined using a Spotchem EZ SP-4430 POCT analyzer (Arkray, Inc., Kyoto, Japan). HDL and LDL levels were determined using a fluorescence quantification kit (K613-100, Biovision, Mountain View, Calif.)

[3] = LDLR−/− mice, HFD 20 weeks, in words
[4] = female LDLR−/− mice, high fat diet 6 weeks, compound 13 2.5 mg/kg ip daily, ALK3-Fc 2 mg/kg ip every other day, mean ± SEM
[5] = female LDLR−/− mice, high fat diet 20 weeks, 2.5 mg/kg ip daily, mean ± SEM

c1ccc2c(-c3cnn4cc(-c5ccc(N6CCNCC6)cc5)cnc34)ccnc2c1 [Compound 13, 4-[6-(4-piperazin-1-ylphenyl)pyrazolo[1,5-a]pyrimidin-3-yl]quinoline]
ectopic calcification and disability [1]: prevented the ectopic calcification and disability | BMP2-induced generation of reactive oxygen species (DCF fluorescence) ([2]; BMP2 20 ng/mL): compound 13- and ALK3-Fc-sensitive manner | oxLDL-induced generation of reactive oxygen species (DCF fluorescence) ([2]; oxLDL 80 μg/mL): could inhibit oxLDL-induced ROS production | oxLDL-induced generation of reactive oxygen species (lucigenin fluorescence) [2]: could be blocked | BMP2-induced ApoB-100 secretion (HepG2 cells; BMP2 100 ng/mL): blocked; also recorded: prevented the BMP2-mediated induction of ApoB-100 secretion | basal ApoB-100 secretion (absence of BMP2) (HepG2 cells): reduced basal apolipoprotein B100 (ApoB-100) secretion; also recorded: inhibited ApoB-100 production | serum alanine transaminase (ALT) levels vs vehicle (LDLR−/− mice; LDLR−/− mice on HFD, in words): reduced | serum alkaline phosphatase (ALP) levels vs vehicle (LDLR−/− mice; LDLR−/− mice on HFD, in words): reduced | HDL cholesterol levels vs vehicle (LDLR−/− mice; [3]): not altered | serum LDL cholesterol levels vs vehicle (LDLR−/− mice; [3]): lower serum LDL cholesterol levels | total cholesterol levels vs vehicle (LDLR−/− mice; [3]): reduced total cholesterol levels | serum LDL cholesterol levels vs vehicle (LDLR−/− mice; LDLR−/− mice, HFD 20 weeks, in words, listed as compound 13): reduced total cholesterol levels and LDL levels | Alanine transaminase (LDLR−/− mice; [4]): 233 ± 56 IU/L | Alkaline phosphatase (LDLR−/− mice; [4]): 112 ± 20 IU/L | Blood urea nitrogen (LDLR−/− mice; [4]): 24 ± 2 mg/dL | Cholesterol (LDLR−/− mice; [4]): 1553 ± 77*^,§ mg/dl | Creatinine (LDLR−/− mice; [4]): 0.5 ± 0.1 mg/dL | Glucose (LDLR−/− mice; [4]): 259 ± 20 mg/dL | Hemoglobin (LDLR−/− mice; [4]): 12.9 ± 1.5 g/dL | Total protein (LDLR−/− mice; [4]): 5.1 ± 0.1 g/dL | Triglycerides (LDLR−/− mice; [4]): 112 ± 15 mg/dL | Alanine transaminase (LDLR−/− mice; [5]): 130 ± 21‘ IU/L | Alkaline phosphatase (LDLR−/− mice; [5]): 84 ± 11 IU/L | Blood urea nitrogen (LDLR−/− mice; [5]): 25 ± 2 mg/dL | Cholesterol (LDLR−/− mice; [5]): 1401 ± 87 mg/dL | Creatinine (LDLR−/− mice; [5]): 0.4 ± 0.0 mg/dL | Glucose (LDLR−/− mice; [5]): 230 ± 19 mg/dL | HDL (LDLR−/− mice; [5]): 73.8 ± 26.5 mg/dL | Hemoglobin (LDLR−/− mice; [5]): 12.9 ± 0.8 g/dL | LDL (LDLR−/− mice; [5]): 1166.3 ± 257.3 mg/dL | Total protein (LDLR−/− mice; [5]): 4.3 ± 0.4 g/dL | Triglycerides (LDLR−/− mice; [5]): 135 ± 16 mg/dL
